Assay results as given in patent US20210300924A1, “5-[6-[[3-(4,5,6,7-TETRAHYDROPYRAZOLO[4,3-C]PYRIDIN-1-YL)AZETIDIN-1-YL]METHYL]MORPHOLIN-4-YL]QUINOLINE-8-CARBONITRILE DERIVATIVES AND SIMILAR COMPOUNDS AS TLR7-9 ANTAGONISTS FOR TREATING SYSTEMIC LUPUS ERYTHEMATOSUS” (Hoffmann-La Roche Inc., priority 2018, published 2021).

Experiments:
TLR9 = target: T1, TLR9 (Homo sapiens, UniProt Q9NR96); test: Human PBMC cell-based assay; parameters: endogenous in cells; host or cells: human PBMC from healthy donor whole blood; conditions: CpG ODN 2216 stimulation, overnight, cytokine readout, read-out: hPBMC/TLR9 IC50
T1 sequence (Q9NR96 26-1032): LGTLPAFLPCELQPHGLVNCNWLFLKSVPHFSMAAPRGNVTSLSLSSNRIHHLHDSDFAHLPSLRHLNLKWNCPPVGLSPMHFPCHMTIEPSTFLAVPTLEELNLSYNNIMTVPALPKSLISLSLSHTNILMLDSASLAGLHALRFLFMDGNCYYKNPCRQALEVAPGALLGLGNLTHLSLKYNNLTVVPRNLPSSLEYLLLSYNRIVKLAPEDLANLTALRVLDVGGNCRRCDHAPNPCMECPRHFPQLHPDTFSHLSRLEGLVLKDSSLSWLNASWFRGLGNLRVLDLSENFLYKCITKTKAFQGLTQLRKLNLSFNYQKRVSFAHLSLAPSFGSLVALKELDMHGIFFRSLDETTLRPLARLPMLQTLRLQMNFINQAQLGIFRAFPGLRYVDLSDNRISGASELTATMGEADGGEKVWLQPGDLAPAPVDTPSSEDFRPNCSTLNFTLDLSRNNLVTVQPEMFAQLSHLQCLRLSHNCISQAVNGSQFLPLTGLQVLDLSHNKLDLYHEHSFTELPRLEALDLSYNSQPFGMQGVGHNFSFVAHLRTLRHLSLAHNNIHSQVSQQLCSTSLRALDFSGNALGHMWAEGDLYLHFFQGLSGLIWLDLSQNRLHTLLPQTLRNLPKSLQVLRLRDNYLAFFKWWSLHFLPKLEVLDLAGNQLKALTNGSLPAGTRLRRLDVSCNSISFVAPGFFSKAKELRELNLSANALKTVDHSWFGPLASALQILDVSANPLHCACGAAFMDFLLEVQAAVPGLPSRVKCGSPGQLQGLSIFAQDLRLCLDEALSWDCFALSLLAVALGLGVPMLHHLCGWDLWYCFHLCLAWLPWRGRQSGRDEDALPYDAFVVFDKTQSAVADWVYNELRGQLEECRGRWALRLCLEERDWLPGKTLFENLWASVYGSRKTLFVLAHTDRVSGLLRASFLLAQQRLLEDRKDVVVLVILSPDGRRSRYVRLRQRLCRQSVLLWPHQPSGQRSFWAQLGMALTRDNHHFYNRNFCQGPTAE
Excerpt: Human PBMC Cell-Based Assay
Unlike the HEK reporter cell lines, human peripheral blood mononuclear cell (PBMC) represents primary human immune cells in blood mainly consisting of lymphocytes, monocytes, and dendritic cells. These cells express TLR7, TLR8, or TLR9, and therefore are natural responders to respective ligand stimulation. Upon activation of these TLRs, PBMCs secrete similar cytokines and chemokines in vitro and in vivo, and therefore the in vitro potency of a TLR7/8/9 antagonist in human PBMC is readily translatable to its pharmacodynamics response in vivo.
Human peripheral blood mononuclear cells (PBMC) were isolated from freshly-drawn lithium-heparinized (Lithium Heparin Plus blood Collection tube, BD Vacutainer®) healthy donor whole blood by density gradient (Ficoll-Paque™ PLUS, GE Healthcare life Sciences). Briefly, […] was diluted with 25 mL PBS (without Ca^2+, Mg^2+) in a 50 mL conical tube with porous barrier (Leucosep tube, Greiner bio-one), where 15.5 mL Ficoll-Paque was under laid after spinning. Tubes were centrifuged for 20 minutes at 800×g (1946 rpm) with the brake in the off position, and PBMC were collected from the buffy coat. Cells were then washed twice in PBS, and red blood cells were lysed by suspension in 2 mL (Red Blood Cell Lysis Buffer, Alfa Aesar) for 5-10 minutes at room temperature. After a final wash in PBS, PBMC were resuspended at a final concentration of 2×10^6 cells/mL in RPMI-1640 media with GlutaMAX™ (Gibco) supplemented with 10% Fetal Bovine Serum (Sigma) and plated at 150 μL/well (3×10^5 cells/well) in tissue culture treated round bottom 96-well plates (Corning Incorporated). Antagonist compounds (compounds of this invention) solubilized and serial diluted in 100% DMSO were added in duplicate to cells to yield a final concentration of 1% DMSO (v/v). PBMC were incubated with antagonist compounds for 30 minutes at 37° C., 5% CO2 before adding various TLR agonist reagents in 48 μL complete media per well as follows (final concentrations indicated): CpG ODN 2216 (InvivoGen) at […] for TLR9, ORN 06/LyoVec (InvivoGen) at 1 μg/mL for TLR8 and R848 (InvivoGen) at 1 μg/mL for TLR7 and TLR8. PBMC were incubated overnight at 37° C. with 5% CO2. Cell culture supernatants were collected, and levels of various human cytokines were assessed by Luminex assay (ProcartaPlex™ Multiplex Immunoassay, Invitrogen) or ELISA procedure according to the manufacturer's recommended protocol (eBioscience, ThermoFisher Scientific). Viability of the cells was also checked with Cell Viability Assay (CellTiter Glo® Luminescent Cell Viability Assay, Promega).

hERG channel = target: T2, hERG channel (Homo sapiens, UniProt Q12809); test: hERG channel inhibition assay (patch-clamp, CHOhERG cells); assay type: cell-based; conditions: for IC50 / IC20: CHOhERG cells, whole-cell patch-clamp; for IC20: human, CHO cells stably expressing hERG (CHOhERG cells); for hERG IC20/TLR7 IC50 / hERG IC20/TLR8 IC50 / hERG IC20/TLR9 IC50: safety ratio, >30 suggests sufficient window
T2 construct: expressed in transfected cells; host or cells: CHO (Chinese hamster ovary), CHOhERG
Procedure: hERG Channel Inhibition Assay:
The hERG K^+ channels were cloned in humans and stably expressed in a CHO (Chinese hamster ovary) cell line. CHOhERG cells were used for patch-clamp (voltage-clamp, whole-cell) experiments. Cells were stimulated by a voltage pattern to activate hERG channels and conduct hERG currents (rapid delayed outward rectifier potassium current of the hERG channel). After the cells were stabilized for a few minutes, the amplitude and kinetics of IKhERG were recorded at a stimulation frequency of 0.1 Hz (6 bpm). Thereafter, the test compound was added to the preparation at increasing concentrations. For each concentration, an attempt was made to reach a steady-state effect, usually, this was achieved within 3-10 min at which time the next highest concentration was applied. The amplitude and kinetics of IKhERG are recorded in each concentration of the drug which were compared to the control values (taken as 100%). (references: Redfern W S, Carlsson L, Davis A S, Lynch W G, MacKenzie I, Palethorpe S, Siegl P K, Strang I, Sullivan A T, Wallis R, Camm A J, Hammond T G. 2003; Relationships between preclinical cardiac electrophysiology, clinical QT interval prolongation and torsade de pointes for a broad range of drugs: evidence for a provisional safety margin in drug development. Cardiovasc. Res. 58:32-45, Sanguinetti MC, Tristani-Firouzi M. 2006; hERG potassium channels and cardiac arrhythmia. Nature 440:463-469, Webster R, Leishman D, Walker D. 2002; Towards a drug concentration effect relationship for QT prolongation and torsades de pointes. Curr. Opin. Drug Discov. Devel. 5:116-26).

T2 sequence (Q12809 whole entry): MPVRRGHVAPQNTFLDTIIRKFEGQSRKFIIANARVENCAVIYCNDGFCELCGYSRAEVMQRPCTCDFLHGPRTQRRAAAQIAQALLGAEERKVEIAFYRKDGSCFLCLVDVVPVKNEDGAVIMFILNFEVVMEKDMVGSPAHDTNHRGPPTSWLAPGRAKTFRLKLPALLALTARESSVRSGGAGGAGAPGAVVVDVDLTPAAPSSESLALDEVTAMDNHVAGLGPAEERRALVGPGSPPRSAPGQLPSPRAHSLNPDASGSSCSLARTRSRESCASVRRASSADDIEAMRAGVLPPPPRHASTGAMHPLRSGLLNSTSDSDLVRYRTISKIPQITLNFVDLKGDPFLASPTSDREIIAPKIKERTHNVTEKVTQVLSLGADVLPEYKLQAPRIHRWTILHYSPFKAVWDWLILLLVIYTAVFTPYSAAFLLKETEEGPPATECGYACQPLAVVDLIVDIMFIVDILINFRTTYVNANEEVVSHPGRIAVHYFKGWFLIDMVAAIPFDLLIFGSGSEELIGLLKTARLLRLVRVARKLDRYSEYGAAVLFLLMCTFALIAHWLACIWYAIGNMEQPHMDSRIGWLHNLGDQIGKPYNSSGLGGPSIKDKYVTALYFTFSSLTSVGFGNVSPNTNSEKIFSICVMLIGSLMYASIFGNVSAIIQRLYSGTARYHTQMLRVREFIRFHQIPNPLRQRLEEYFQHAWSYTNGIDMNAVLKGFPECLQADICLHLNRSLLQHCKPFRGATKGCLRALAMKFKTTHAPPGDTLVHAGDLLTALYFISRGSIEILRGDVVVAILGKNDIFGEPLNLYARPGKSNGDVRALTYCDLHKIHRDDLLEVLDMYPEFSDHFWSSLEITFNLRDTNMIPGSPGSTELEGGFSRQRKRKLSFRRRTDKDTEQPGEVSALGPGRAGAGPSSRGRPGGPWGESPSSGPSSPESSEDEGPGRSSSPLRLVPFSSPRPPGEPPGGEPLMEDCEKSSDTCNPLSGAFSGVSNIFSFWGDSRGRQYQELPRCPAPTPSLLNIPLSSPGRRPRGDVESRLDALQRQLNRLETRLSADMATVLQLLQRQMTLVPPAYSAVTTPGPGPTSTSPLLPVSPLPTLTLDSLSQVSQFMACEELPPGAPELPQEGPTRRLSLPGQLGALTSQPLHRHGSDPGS

IC50 (TLR9)	SMILES	IC50 (hERG channel)	IC20 (hERG channel)	hERG IC20/TLR7 IC50 (hERG channel)	hERG IC20/TLR8 IC50 (hERG channel)	hERG IC20/TLR9 IC50 (hERG channel)
0.081 µM	C[C@@H]1CN(c2ccc(C#N)c3ncccc23)C[C@H](CN2CC(n3ncc4c3CN[C@@H](C)C4)C2)O1 (single isomer, unassigned) [Example 27]	–	–	–	–	–
0.214 µM	C[C@@H]1Cc2cnn(C3CN(C[C@H]4CN(c5ccc(C#N)c6ncccc56)C[C@@H](C)O4)C3)c2CN1 (single isomer, unassigned) [Example 28]	–	–	–	–	–
0.235 µM	C[C@@H]1CN(c2ccc(C#N)c3ncccc23)C[C@H](CN2CC(n3ncc4c3[C@@H](C)NCC4)C2)O1 (single isomer, unassigned) [Example 31]	–	–	–	–	–
0.145 µM	C[C@@H]1CN(c2ccc(C#N)c3ncccc23)C[C@H](CN2CC(n3ncc4c3[C@H](C)NCC4)C2)O1 (single isomer, unassigned) [Example 32]	–	–	–	–	–
0.097 µM	C[C@@H]1CN(c2ccc(C#N)c3ncccc23)C[C@H](CN2CC(n3ncc4c3CCN[C@@H]4C)C2)O1 [Example 20, 5-[(2R,6S)-2-methyl-6-[[3-[(4R)-4-methyl-4,5,6,7-tetrahydropyrazolo[4,3-c]pyridin-1-yl]azetidin-1-yl]methyl]morpholin-4-yl]quinoline-8-carbonitrile]	–	–	–	–	–

More lines, now with the values behind:

SMILES	IC50 (TLR9)	IC50 (hERG channel)	IC20 (hERG channel)	hERG IC20/TLR7 IC50 (hERG channel)	hERG IC20/TLR8 IC50 (hERG channel)	hERG IC20/TLR9 IC50 (hERG channel)
C[C@@H]1CN(c2ccc(C#N)c3ncccc23)C[C@H](CN2CC(n3cc4c(n3)[C@H](C)CNC4)C2)O1 (single isomer, unassigned) [Example 25]	0.346 µM	–	–	–	–	–
C[C@@H]1CN(c2ccc(C#N)c3ncccc23)C[C@H](CN2CC(n3cc4c(n3)[C@H](C)NCC4)C2)O1 (single isomer, unassigned) [Example 34]	0.202 µM	–	–	–	–	–
C[C@@H]1CN(c2ccc(C#N)c3ncccc23)C[C@H](CN2CC(n3ncc4c3CCNC4)C2)O1 [Example 1, 5-[(2R,6S)-2-methyl-6-[[3-(4,5,6,7-tetrahydropyrazolo[4,3-c]pyridin-1-yl)azetidin-1-yl]methyl]morpholin-4-yl]quinoline-8-carbonitrile]	–	> 20 µM	> 10 µM	>1023.8	>584.4	>174.0
C[C@@H]1CN(c2ccc(C#N)c3ncccc23)C[C@H](CN2CC(n3cc4c(n3)CCNC4)C2)O1 [Example 2, 5-[(2R,6S)-2-methyl-6-[[3-(4,5,6,7-tetrahydropyrazolo[4,3-c]pyridin-2-yl)azetidin-1-yl]methyl]morpholin-4-yl]quinoline-8-carbonitrile]	–	> 20 µM	> 10 µM	>403.5	>538.4	>151.6
CCN1CCc2cn(C3CN(C[C@H]4CN(c5ccc(C#N)c6ncccc56)C[C@@H](C)O4)C3)nc2C1 [Example 7, 5-[(2S,6R)-2-[[3-(6-ethyl-5,7-dihydro-4H-pyrazolo[3,4-c]pyridin-2-yl)azetidin-1-yl]methyl]-6-methyl-morpholin-4-yl]quinoline-8-carbonitrile]	0.195 µM	–	–	–	–	–
C[C@@H]1CN(c2ccc(C#N)c3ncccc23)C[C@H](CN2CC(n3cc4c(n3)CNC4)C2)O1 [Example 11, 5-[(2S,6R)-2-[[3-(5,6-dihydro-4H-pyrrolo[3,4-c]pyrazol-2-yl)azetidin-1-yl]methyl]-6-methyl-morpholin-4-yl]quinoline-8-carbonitrile]	–	> 20 µM	> 10 µM	>602.4	>531.9	>204.5
Cc1c2c(nn1C1CN(C[C@H]3CN(c4ccc(C#N)c5ncccc45)C[C@@H](C)O3)C1)CCN(C)C2 [Example 15, 5-[(2S,6R)-2-[[3-(3,5-dimethyl-6,7-dihydro-4H-pyrazolo[4,3-c]pyridin-2-yl)azetidin-1-yl]methyl]-6-methyl-morpholin-4-yl]quinoline-8-carbonitrile]	0.11 µM	–	–	–	–	–
C[C@@H]1Cc2nn(C3CN(C[C@H]4CN(c5ccc(C#N)c6ncccc56)C[C@@H](C)O4)C3)cc2CN1 [Example 17, 5-[(2R,6S)-2-methyl-6-[[3-[(6R)-6-methyl-4,5,6,7-tetrahydropyrazolo[4,3-c]pyridin-2-yl]azetidin-1-yl]methyl]morpholin-4-yl]quinoline-8-carbonitrile]	0.113 µM	–	–	–	–	–
C[C@@H]1CN(c2ccc(C#N)c3ncccc23)C[C@H](CN2CC(n3cc4c(n3)CCN[C@@H]4C)C2)O1 [Example 21, 5-[(2R,6S)-2-methyl-6-[[3-[(4R)-4-methyl-4,5,6,7-tetrahydropyrazolo[4,3-c]pyridin-2-yl]azetidin-1-yl]methyl]morpholin-4-yl]quinoline-8-carbonitrile]	0.092 µM	–	–	–	–	–
C[C@@H]1CN(c2ccc(C#N)c3ncccc23)C[C@H](CN2CCC(n3ncc4c3CCNC4)CC2)O1 [Example 35, 5-[(2R,6S)-2-methyl-6-[[4-(4,5,6,7-tetrahydropyrazolo[4,3-c]pyridin-1-yl)-1-piperidyl]methyl]morpholin-4-yl]quinoline-8-carbonitrile]	–	> 20 µM	> 10 µM	>1924.5	>397.8	>121.4
C[C@@H]1CN(c2ccc(C#N)c3ncccc23)C[C@H](CN2CCC(n3cc4c(n3)CCNC4)CC2)O1 [Example 36, 5-[(2R,6S)-2-methyl-6-[[4-(4,5,6,7-tetrahydropyrazolo[4,3-c]pyridin-2-yl)-1-piperidyl]methyl]morpholin-4-yl]quinoline-8-carbonitrile]	–	> 20 µM	10 µM	566.6	246.7	180.7
